Like-named read-outs stand apart in the source and are kept apart here.
Tests used:
MOLM-13 cells = assay: Proliferation assay MOLM-13 (Method 3); type: cell-based, human; settings: MOLM-13, 72-hour exposure, Cell Titre-Glo, read-out: Inhibition of MOLM-13 cell proliferation IC50
Description: Non-adherent MOLM-13 human acute myeloid leukemia cells (DSMZ ACC 554) were seeded at a density of 5,000 cells/well in a 96-well multititer plate in 100 μL of growth medium supplemented 10% fetal calf serum. After 24 hours, cell viability of one plate (zero-point plate) was determined with the Cell Titre-Glo Luminescent Cell Viability Assay (Promega), while 50 μL of test compound containing medium was added to the wells of the other plates (final concentrations in the range of 0.001-10 μM and DMSO controls; the final concentration of the solvent dimethyl sulfoxide was 0.5%). Cell viability was assessed after 72-hour exposure with the Cell Titre-Glo Luminescent Cell Viability Assay (Promega). IC50 values (inhibitory concentration at 50% of maximal effect) were determined by means of a 4 parameter fit on measurement data which were normalized to vehicle (DMSO) treated cells (=100%) and measurement readings taken immediately before compound exposure (=0%).

CDK9/CycT1 [1] = molecular target: T1, CDK9/CycT1 (Homo sapiens, UniProt P50750); assay: CDK9/CycT1 kinase assay (Method 1a, TR-FRET); type: biochemical; settings: 10 μM ATP; for Selectivity CDK9 over CDK2: IC50 (CDK2)/IC50 (CDK9): Methods 1a. and 2a.
T1 construct: Recombinant full-length His-tagged human CDK9 and CycT1; His; purchased Invitrogen PV4131; host or cells: insect cells
T1 sequence (P50750 whole entry): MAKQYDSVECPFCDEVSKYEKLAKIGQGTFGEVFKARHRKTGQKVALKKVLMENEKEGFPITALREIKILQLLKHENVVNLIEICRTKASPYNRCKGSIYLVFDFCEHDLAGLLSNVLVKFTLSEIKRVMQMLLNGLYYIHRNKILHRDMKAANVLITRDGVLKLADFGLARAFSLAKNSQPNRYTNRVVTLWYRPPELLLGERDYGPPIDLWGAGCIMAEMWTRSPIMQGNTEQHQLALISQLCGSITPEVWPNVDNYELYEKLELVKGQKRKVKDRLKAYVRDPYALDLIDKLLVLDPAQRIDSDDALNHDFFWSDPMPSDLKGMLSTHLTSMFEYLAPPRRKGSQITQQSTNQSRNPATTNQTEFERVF
T1 sequence (O60563 whole entry partner): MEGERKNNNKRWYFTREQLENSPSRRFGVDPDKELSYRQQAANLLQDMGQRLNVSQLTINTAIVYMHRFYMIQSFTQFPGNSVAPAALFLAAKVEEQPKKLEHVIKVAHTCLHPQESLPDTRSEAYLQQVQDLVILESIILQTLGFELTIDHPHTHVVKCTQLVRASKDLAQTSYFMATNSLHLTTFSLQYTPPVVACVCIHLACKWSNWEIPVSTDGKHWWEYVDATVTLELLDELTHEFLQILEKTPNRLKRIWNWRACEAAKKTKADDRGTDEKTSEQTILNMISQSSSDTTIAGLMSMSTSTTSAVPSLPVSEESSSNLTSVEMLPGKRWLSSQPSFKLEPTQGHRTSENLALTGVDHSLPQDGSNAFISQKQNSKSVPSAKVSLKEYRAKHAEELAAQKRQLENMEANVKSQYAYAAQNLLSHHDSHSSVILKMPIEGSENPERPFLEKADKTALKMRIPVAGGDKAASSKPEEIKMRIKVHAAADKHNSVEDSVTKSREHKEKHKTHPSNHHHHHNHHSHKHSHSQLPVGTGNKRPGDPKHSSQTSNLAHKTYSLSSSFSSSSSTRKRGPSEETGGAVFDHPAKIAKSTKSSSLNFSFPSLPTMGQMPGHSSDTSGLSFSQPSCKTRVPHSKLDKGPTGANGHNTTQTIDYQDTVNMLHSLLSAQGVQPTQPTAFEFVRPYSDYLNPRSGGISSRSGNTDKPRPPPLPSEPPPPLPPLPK
Text: 1a. CDK9/CycT1 Kinase Assay:
CDK9/CycT1-Inhibitory Activity of Compounds of the Present Invention was Quantified Employing the CDK9/CycT1 TR-FRET Assay as Described in the Following Paragraphs:
(§1) Recombinant full-length His-tagged human CDK9 and CycT1, expressed in insect cells and purified by Ni-NTA affinity chromatography, were purchased from Invitrogen (Cat. No PV4131). As substrate for the kinase reaction biotinylated peptide biotin-Ttds-YISPLKSPYKISEG (C-terminus in amid form) was used which can be purchased e.g. form the company JERINI Peptide Technologies (Berlin, Germany). For the assay 50 nl of a 100 fold concentrated solution of the test compound in DMSO was pipetted into a black low volume 384 well microtiter plate (Greiner Bio-One, Frickenhausen, Germany), 2 μl of a solution of CDK9/CycT1 in aqueous assay buffer [50 mM Tris/HCl pH 8.0, 10 mM MgCl2, 1.0 mM dithiothreitol, 0.1 mM sodium ortho-vanadate, 0.01% (v/v) Nonidet-P40 (Sigma)] were added and the mixture was incubated for 15 min at 22° C. to allow pre-binding of the test compounds to the enzyme before the start of the kinase reaction. Then the kinase reaction was started by the addition of 3 μl of a solution of adenosine-tri-phosphate (ATP, 16.7 μM=>final conc. in the 5 μl assay volume is 10 μM) and substrate (1.67 μM=>final conc. in the 5 μl assay volume is 1 μM) in assay buffer and the resulting mixture was incubated for a reaction time of 25 min at 22° C. The concentration of CDK9/CycT1 was adjusted depending of the activity of the enzyme lot and was chosen appropriate to have the assay in the linear range, typical concentrations were in the range of 1 μg/mL. The reaction was stopped by the addition of 5 μl of a solution of TR-FRET detection reagents (0.2 μM streptavidine-XL665 [Cisbio Bioassays, Codolet, France] and 1 nM anti-RB(pSer807/pSer811)-antibody from BD Pharmingen [#558389] and 1.2 nM LANCE EU-W1024 labeled anti-mouse IgG antibody [Perkin-Elmer, product no. AD0077]) in an aqueous EDTA-solution (100 mM EDTA, 0.2% (w/v) bovine serum albumin in 100 mM HEPES/NaOH pH 7.0).
(§2) The resulting mixture was incubated 1 h at 22° C. to allow the formation of complex between the phosphorylated biotinylated peptide and the detection reagents. Subsequently the amount of phosphorylated substrate was evaluated by measurement of the resonance energy transfer from the Eu-chelate to the streptavidine-XL. Therefore, the fluorescence emissions at 620 nm and 665 nm after excitation at 350 nm was measured in a HTRF reader, e.g. a Rubystar (BMG Labtechnologies, Offenburg, Germany) or a Viewlux (Perkin-Elmer). The ratio of the emissions at 665 nm and at […] was taken as the measure for the amount of phosphorylated substrate. The data were normalised (enzyme reaction without inhibitor=0% inhibition, all other assay components but no enzyme=100% inhibition).

CDK9/CycT1 [2] = molecular target: T1, CDK9/CycT1; assay: CDK9/CycT1 high ATP kinase assay (Method 1b, TR-FRET); type: biochemical; settings: 2 mM ATP; for Selectivity high ATP CDK9 over high ATP CDK2: IC50 (high ATP CDK2)/IC50 (high ATP CDK9): Methods 1b. and 2b.
Description: 1b. CDK9/CycT1 High ATP Kinase Assay
CDK9/CycT1-Inhibitory Activity of Compounds of the Present Invention at a High ATP Concentration after Preincubation of Enzyme and Test Compounds was Quantified Employing the CDK9/CycT1 TR-FRET Assay as Described in the Following Paragraphs.
as §1, with “were purchase” for “were purchased”, “JERINI peptide technologies” for “JERINI Peptide Technologies”, “(ATP, 3.3 mM=>final” for “(ATP, 16.7 μM=>final”, “is 2 mM)” for “is 10 μM)”, “of 0.5” for “of 1”
as §2

SMILES | IC50 (MOLM-13 cells; Homo sapiens, MOLM-13, 72 h) [nM] | IC50 (CDK9/CycT1 [1]) [nM] | Selectivity CDK9 over CDK2: IC50 (CDK2)/IC50 (CDK9) (CDK9/CycT1 [1]) | IC50 (CDK9/CycT1 [2]) [nM] | Selectivity high ATP CDK9 over high ATP CDK2: IC50 (high ATP CDK2)/IC50 (high ATP CDK9) (CDK9/CycT1 [2]) | IC50 (MOLM-13 cells) [nM]
CS(=O)(Cc1cc(Nc2ncc(F)c(-c3ccc(F)c4ccoc34)n2)cc(S(F)(F)(F)(F)F)c1)=NC#N (racemic) [Example 17, (rac)-{[3-{[5-fluoro-4-(4-fluoro-1-benzofuran-7-yl)pyrimidin-2-yl]amino}-5-(pentafluoro-λ^6-sulfanyl)benzyl](methyl)oxido-λ^6-sulfanylidene}cyanamide] | 57 | 8 | 33 | 7.4 | 197 | –
CS(=O)(Cc1cc(F)cc(Nc2ncc(F)c(-c3ccc(F)c4ccoc34)n2)c1)=NC#N (single isomer, unassigned) [Example 8, [(3-Fluoro-5-{[5-fluoro-4-(4-fluoro-1-benzofuran-7-yl)pyrimidin-2-yl]amino}benzyl)(methyl)-oxido-λ^6-sulfanylidene]cyanamide] | 34 | 1.6 | 39 | 1 | 812 | –
CS(=O)(Cc1cc(F)cc(Nc2ncc(F)c(-c3ccc(F)c4ccoc34)n2)c1)=NC#N (single isomer, unassigned) [Example 9, [(3-Fluoro-5-{[5-fluoro-4-(4-fluoro-1-benzofuran-7-yl)pyrimidin-2-yl]amino}benzyl)(methyl)-oxido-λ^6-sulfanylidene]cyanamide] | – | 2.1 | 42 | 3.4 | 656 | 24
Cc1cc(CS(C)(=O)=NC#N)cc(Nc2ncc(F)c(-c3ccc(F)c4ccoc34)n2)c1 (single isomer, unassigned) [Example 14, [(3-{[5-Fluoro-4-(4-fluoro-1-benzofuran-7-yl)pyrimidin-2-yl]amino}-5-methylbenzyl)-(methyl)oxido-λ^6-sulfanylidene]cyanamide] | 75 | 4.4 | 15 | 2.2 | 385 | –
Cc1cc(CS(C)(=O)=NC#N)cc(Nc2ncc(F)c(-c3ccc(F)c4ccoc34)n2)c1 (single isomer, unassigned) [Example 15, [(3-{[5-Fluoro-4-(4-fluoro-1-benzofuran-7-yl)pyrimidin-2-yl]amino}-5-methylbenzyl)-(methyl)oxido-λ^6-sulfanylidene]cyanamide] | – | 2.4 | 40 | 1.6 | 522 | 74

Second part, the molecule after the results:

IC50 (MOLM-13 cells; Homo sapiens, MOLM-13, 72 h) [nM] | IC50 (CDK9/CycT1 [1]) [nM] | Selectivity CDK9 over CDK2: IC50 (CDK2)/IC50 (CDK9) (CDK9/CycT1 [1]) | IC50 (CDK9/CycT1 [2]) [nM] | Selectivity high ATP CDK9 over high ATP CDK2: IC50 (high ATP CDK2)/IC50 (high ATP CDK9) (CDK9/CycT1 [2]) | IC50 (MOLM-13 cells) [nM] | SMILES
30 | 2.9 | 25 | 4.4 | 350 | – | CS(=N)(=O)Cc1cc(Nc2ncc(F)c(-c3ccc(F)c4ccoc34)n2)cc(S(F)(F)(F)(F)F)c1 (racemic) [Example 18, (rac)-5-Fluoro-4-(4-fluoro-1-benzofuran-7-yl)-N-{3-[(S-methylsulfonimidoyl)methyl]-5-(pentafluoro-λ^6-sulfanyl)phenyl}pyrimidin-2-amine]
– | 1.4 | 14 | 1.1 | 321 | 29 | CS(=O)(Cc1cccc(Nc2ncc(F)c(-c3ccc(F)c4ccoc34)n2)c1)=NC#N (single isomer, unassigned) [Example 2, [(3-{[5-Fluoro-4-(4-fluoro-1-benzofuran-7-yl)pyrimidin-2-yl]amino}benzyl)(methyl)oxido-λ^6-sulfanylidene]cyanamide]
47 | 3.3 | 14 | 1 | 475 | – | CS(=O)(Cc1cccc(Nc2ncc(F)c(-c3ccc(F)c4ccoc34)n2)c1)=NC#N (single isomer, unassigned) [Example 3, [(3-{[5-Fluoro-4-(4-fluoro-1-benzofuran-7-yl)pyrimidin-2-yl]amino}benzyl)(methyl)oxido-λ^6-sulfanylidene]cyanamide]
115 | 3.7 | 24 | 5.6 | 143 | – | CS(=N)(=O)Cc1cccc(Nc2ncc(F)c(-c3ccc(F)c4ccoc34)n2)c1 (single isomer, unassigned) [Example 5, 5-Fluoro-4-(4-fluoro-1-benzofuran-7-yl)-N-{3-[(S-methylsulfonimidoyl)-methyl]-phenyl}-pyrimidin-2-amine]
– | 2.6 | 22 | 3.2 | 313 | 117 | CS(=N)(=O)Cc1cccc(Nc2ncc(F)c(-c3ccc(F)c4ccoc34)n2)c1 (single isomer, unassigned) [Example 6, 5-Fluoro-4-(4-fluoro-1-benzofuran-7-yl)-N-{3-[(S-methylsulfonimidoyl)-methyl]-phenyl}-pyrimidin-2-amine]

— patent US9884849B2, “Fluorinated benzofuranyl-pyrimidine derivatives containing a sulfoximine group” (Bayer Pharma Aktiengesellschaft, priority 2014, dated 2018)
